Assay results as given in patent US20250197864A1, “LNCRNA TRANSCRIPTS IN MELANOMAGENESIS” (The Regents of the University of California, priority 2021, published 2025).
{Chol} = cholesterol

What was measured:
Experiment in all cases: Cell viability assay (ATP quantitation)
[1] = test system: D04 melanoma cell line; type: cell-based, human; details: 50 nM, 5 days (120 hrs), vs non-targeting control
Procedure: (§1) EsiRNA, siRNA and ASO GapmeRs were transfected in a final concentration of 50 nM unless mentioned otherwise and the transfection reagent Lipofectamine 3000 (2 ul/ml) was added according to the manufacturer's instructions.
(§2) Dependent on cell doubling time, 0.7-2×10^^3 cells were seeded in 96 well plates. 1 day after seeding cells were incubated in media with oligonucleotide concentration and/or MEKi and transfection reagent. 3 (synergy experiments) or 5 (solely ASO) days after transfection Total luminescence was measured on the SynergyHT plate reader (BioTek) using Gen5 software.

[2] = test system: AV5 primary melanoma cell line; type: cell-based, human; details: 50 nM, 5 days (120 hrs), vs non-targeting control
Procedure: as §1, §2

[3] = test system: Sk-Mel-28 melanoma cell line; type: cell-based, human; details: 50 nM, 5 days (120 hrs), vs non-targeting control
Procedure: as §1, §2

[4] = test system: WM3629 melanoma cell line; type: cell-based, human; details: 50 nM, 5 days (120 hrs), vs non-targeting control
Procedure: as §1, §2

[5] = test system: Sk-Mel-2 melanoma cell line; type: cell-based, human; details: 50 nM, 5 days (120 hrs), vs non-targeting control
Procedure: as §1, §2

[6] = test system: MM415 melanoma cell line; type: cell-based, human; details: 50 nM, 5 days (120 hrs), vs non-targeting control
Procedure: as §1, §2

[7] = test system: Sk-N-AS Neuroblastoma cell line; type: cell-based; details: 50 nM, 5 days, vs non-targeting control
Procedure: as §1, §2

[8] = test system: sarcoma cell line SK-LMS-1; type: cell-based; details: SK-LMS-1 sarcoma; 50 nM, 120 hrs; Lipofectamine3000 2 ul/ml; vs non-targeting control ASO
Procedure: as §1, §2
(§3) Cell viability was compared to treatment with non-targeting control ASO-treatment. Lipofectamine3000 concentration was 2 ul/ml.

[9] = test system: hepatocellular carcinoma cell line HepG2; type: cell-based; details: 50 nM, 120 hrs, Lipofectamine3000 2 ul/ml, vs non-targeting control ASO
Procedure: as §1, §2, §3

[10] = test system: MaMel30 melanoma cell line; type: cell-based; details: 50 nM, 5 days, vs non-targeting control
Procedure: as §1, §2

Measured: cell viability decrease

AGCAAUGACUCCUGAACAUUU (antisense AUGUUCAGGAGUCAUUGCUUU; siRNA; 5' phosphate on antisense strand, other chemistry not given here) [SEQ ID NO: 27, siRNA targeting RP11-7011.3]
significant cell viability decrease: [1] | [2] | [3]

GAGUAACAGAGGAGAACUUUU (antisense AAGUUCUCCUCUGUUACUCUU; siRNA; 5' phosphate on antisense strand, other chemistry not given here) [SEQ ID NO: 25, siRNA targeting both isoforms of AC004540.4]
significant cell viability decrease: [2]

5′-GCCAACAGCAUGUCAAUUCAGUGAT-3′ (chain 2 GACGGUUGUCGUACAGUUAAGUCACUA; chemistry not given here; one strand is listed 3' to 5') [SEQ ID NO: 43]
significant cell viability decrease: [1] | [4] | [5]

AAGTCCTTGGTTGATG (QIAGEN GapmeR, modification pattern not given here) [SEQ ID NO: 21, Antisense oligonucleotide targeting AL157871.4-201]
significant cell viability decrease: [1] | [6] | [5] | [3] | [7]

AGATGGCTCTGTAAGA (QIAGEN GapmeR, modification pattern not given here) [SEQ ID NO: 49, Antisense oligonucleotide targeting SNX10]
significant cell viability decrease: [1]

GCGTCAACTAAAGCAA (QIAGEN GapmeR, modification pattern not given here) [SEQ ID NO: 20, Antisense oligonucleotide targeting ARF-AS1-202 and ARF-AS1-203]
significant cell viability decrease: [1] | [6] | [5] | [3] | [7]

GACTGGAGATAATTAA-Cholesterol (3' {Chol}, sugars by position and backbone not given here; GapmeR, chemically modified) [SEQ ID NO:47, TRASH targeting ASO with additional Cholesterol modification]
significant cell viability decrease: [1] | [6] | [8] | [9]

GGAAAGGCGAGCUGAGCAUUU (antisense AUGCUCAGCUCGCCUUUCCUU; listed as RNA, chemistry not given here) [SEQ ID NO: 37, siRNA targeting ARF-AS1 isoform 1]
significant cell viability decrease: [1]

5′-AUUUCAUGUCUGAAGCAAUUCUACT-3′ (chain 2 AAUAAAGUACAGACUUCGUUAAGAUGA; chemistry not given here; one strand is listed 3' to 5') [SEQ ID NO: 44]
significant cell viability decrease: [1] | [6] | [4] | [5]

CCCAGAAGCUAGAGGUAAAUU (antisense UUUACCUCUAGCUUCUGGGUU; listed as RNA, chemistry not given here) [SEQ ID NO: 23, siRNA targeting BX470102.3-008]
significant cell viability decrease: [1] | [2] | [3]

ATTGATGAAAGGTGAA (QIAGEN GapmeR, modification pattern not given here) [SEQ ID NO: 19, Antisense oligonucleotide targeting ARF-AS1-201, ARF-AS1-202 and ARF-AS1-203]
significant cell viability decrease: [1] | [6] | [5] | [3] | [7] | [10]

5′-GGUAAAAACAUGAAGCUAAUAGUUA-3′ (chain 2 ACCCAUUUUUGUACUUCGAUUAUCAAU; listed as RNA, chemistry not given here; one strand is listed 3' to 5') [SEQ ID NO: 42]
significant cell viability decrease: [1] | [6] | [5]

UGGAUAAUGAUAAGGUCUAUU (antisense UAGACCUUAUCAUUAUCCAUU; listed as RNA, chemistry not given here) [SEQ ID NO: 39, siRNA targeting AL157871.4-201]
significant cell viability decrease: [1]

GTAAGTAGGAGCTGTG (QIAGEN GapmeR, modification pattern not given here) [SEQ ID NO: 22, Antisense oligonucleotide targeting AL157871.4-201]
significant cell viability decrease: [1] | [6] | [5] | [3] | [7] | [10]

5′-UCACAAAGAGAGACAGGAAUU-3′ (chain 2 UUCCUGUCUCUCUUUGUGAUU; listed as RNA, chemistry not given here) [SEQ ID NO:46]
significant cell viability decrease: [1] | [6]
